Laboratory results as given in US20140127235A1, “TARGETING HK alpha FOR CONTROLLING BLOOD PRESSURE AND REGULATING ELECTROLYTE BALANCE” (UNIVERSITY OF FLORIDA RESEARCH FOUNDATION, INC., priority 2011, published 2014).

Tests used:
Assay type in all cases: in vivo, mouse
HKα2 mRNA = assay: Real time PCR of renal HKα2 mRNA expression in DOCP-treated mice
Source text: The principal mechanism of mineralocorticoid action is through modulation of target gene transcription.^15 Therefore, the next experiments evaluated the effect of DOCP on renal HKα1 and HKα2 mRNA expression. Real time quantitative PCR was used to investigate changes in steady state mRNA levels of H^+,K^+-ATPase α subunits, HKα1 and HKα2, in cortex, outer medulla, and inner medulla of control and DOCP-treated mice.
Deficits in K^+ homeostasis have long been known to stimulate H^+,K^+-ATPase activity and HKα subunit expression. Therefore, the next experiments investigated whether the decreases in blood [K^+] observed in DOCP-treated mice were responsible for the stimulation of HKα2 mRNA expression. For this experiment, mice were fed a high K^+ diet and then left untreated (control) or given DOCP treatment. Body weight and blood electrolytes were measured eight days after treatment and kidneys were collected for analysis of HKα, and HKα2 mRNA expression by real time PCR. A high K^+ diet abrogated the effect of DOCP on body weight gain, blood [K^+], [Cl^−], and [HCO3^−] in mice (Table 3). Similarly, the stimulation of HKα, or HKα2 mRNA expression with DOCP was absent in mice fed a high K^+ diet (FIGS. 3C and 3D).
RNA was recovered from cortex, medulla, and inner medulla with TRIzol reagent (Invitrogen). RNA was treated with DNase 1 (Ambion DNA Free) and converted to cDNA using SuperScript III (Invitrogen). For real time quantitative PCR, 20 ng cDNA was used to quantify mRNA expression with TaqMan Gene Expression (Applied Biosystems) primer/probe sets for HKα1 (Atp4a, Mm00444423_m1), HKα2 (Atp12a, Mm0131809_m1), and β-actin (Actb, Mm00607939_s1). Cycle threshold (Ct) values were normalized to β-actin, and relative expression (control set to 100%) was calculated by the ΔΔCt method.^28

[1] = Radiotelemetry (blood pressure, heart rate, locomotor activity) in WT and HKα1,2−/− mice, control and DOCP; conditions: for Mean arterial pressures / Heart rate / Locomotor activity: DOCP
Source text: Age matched, male C56BL/6 WT and C56BL/6 HKα1,2^−/− mice were anesthetized using 5% isoflurane, and radiotelemetry transmitters (PA-C10, Data Sciences, St. Paul, Minn.) were implanted under sterile conditions (1-3% continuous isoflurane). The catheter was placed in the left carotid artery and the housing of the transmitter was implanted subcutaneously on the animal's right flank. Mice were allowed to recover for a period of at least 14 days prior to recordings. These mice were not subject to metabolic cage experiments or blood and tissue collections. Mice were fed a normal lab chow (Teklad 2018, 0.2% Na and 0.5% K) and allowed free access to water. DOCP treated mice received an intramuscular injection of 1.7 mg DOCP (Percorten V, Novartis Pharmaceuticals) and were fed the normal gel diet described previously supplemented with NaCl to equal 0.4% Na^+ ad libitum for 8 days with free access to water. Radiotelemetry recordings were performed one week before and one week after DOCP treatment. At the time of the control recording, mice ranged in age from 15-25 weeks. Recording were made for 2 minutes at the beginning of each hour or for 2 minutes every 10 minutes for 48 hours. Moving averages were calculated for each hour. Comparisons of systolic BP, HR, and LA were made for the main effects 1) DOCP treated versus untreated and 2) WT versus HKα1,2^−/− mice. Differences between the daytime (06:00-17:59) and nighttime (18:00-05:59) values for these parameters were also compared.
Radiotelemetry was performed in order to assess genotypic differences in systolic BP, HR and LM during normal and DOCP treatment. Example 48 hr tracings of systolic BP, HR, and LA comparing WT and HKα1,2^−/− during normal and DOCP treatment are shown in FIG. 13.

H^+,K^+-ATPase = assay: H+,K+-ATPase-mediated H+ secretion (JH) in intercalated cells of microperfused inner cortical collecting ducts from DOCP-treated mice (BCECF-AM)
Experimental: One likely mechanism for mineralocorticoid-induced changes in acid-base homeostasis was stimulation of renal H^+,K^+-ATPase activity in response to mineralocorticoid-induced K^+ deficits. Therefore, H^+,K^+-ATPase activity was assessed in inner cortical collecting ducts from control and DOCP-treated mice. Individual intercalated cells from microperfused collecting ducts were loaded with the pH sensitive fluorescent dye, BCECF-AM. The addition of inhibitors of the Na^+/H^+ exchanger and the H^+-ATPase allowed for the measurement of H^+,K^+-ATPase-mediated H^+ secretion (JH) in response to an acute intracellular acid load (NH4Cl). The overall rate of H^+,K^+-ATPase-mediated JH in intercalated cells from control mice was quite slow (˜15H^+/min) (FIG. 1).
Additional experiments were conducted to identify which intercalated cell subtype was responsible for the DOCP-induced increase in H^+,K^+-ATPase mediated JH. Again, the rate of H^+,K^+-ATPase-mediated JH was measured in intercalated cells of inner cortical collecting ducts from control and DOCP-treated mice. At the end of the experiment, A- and B-type ICs were differentiated by peritubular Cl^− removal and return as has been described previously^12,13 The characteristic inverse responses of A- and B-type intercalated cells to Cl^− removal and return were observed (Table 2). […]
Inner cortical collecting ducts were hand dissected at 4° C., transferred to a mounting chamber and perfused as described previously.^25 The ratiometric, pH sensitive dye, BCECF-AM (15 μM, Invitrogen) was added to the luminal perfusate for 10 minutes and fluorescence measurements were performed after dye de-esterification. […] Recovery rates were calculated from the linear portion of the pH, recovery phase starting with the lowest pH, achieved. The intrinsic buffering capacity was calculated from the formula βi=ΔHi/ΔpHi where ΔHi is the change in the calculated [NH4]i and ΔpHi the change in pHi during the acid loaded phase. Acid secretion rates (JH) were calculated from the formula JH=βi*ΔpH, (U/min) and expressed as [H^+]/min. […]

SMILES: CC(C)(C)C(=O)OCC(=O)[C@H]1CC[C@H]2[C@@H]3CCC4=CC(=O)CC[C@]4(C)[C@H]3CC[C@]12C [DOCP, desoxycorticosterone pivalate]
- HKα2 mRNA expression (HKα2 mRNA; cortex, eight days after DOCP, normal diet): did not affect
- HKα2 mRNA levels, increase (HKα2 mRNA; inner medulla, eight days after DOCP, normal diet): as much as five-fold
- stimulation of HKα1 or HKα2 mRNA expression with DOCP (HKα2 mRNA; mice fed a high K+ diet): absent
- HKα2 mRNA levels, increase (HKα2 mRNA; outer medulla, eight days after DOCP, normal diet): more than two-fold
- effect on daytime or nighttime systolic BP ([1]; HKα1,2−/− mice): failed to significantly increase
- Mean arterial pressures ([1]; HKα1,2−/− mice, Daytime (Inactive)): 112.7 ± 1.8 mmHg
- Heart rate ([1]; HKα1,2−/− mice, Daytime): 554.8 ± 21.4 beats/min
- Locomotor activity ([1]; HKα1,2−/− mice, Daytime): 3.267 ± 0.603
- Mean arterial pressures ([1]; HKα1,2−/− mice, Nighttime (Active)): 118.5 ± 2.4 mmHg
- Heart rate ([1]; HKα1,2−/− mice, Nighttime): 580.5 ± 20.1 beats/min
- Locomotor activity ([1]; HKα1,2−/− mice, Nighttime): 5.410 ± 1.078
- effect on locomotor activity (LA) ([1]; WT and HKα1,2−/− mice): did not significantly affect
- effect on systolic BP during the day and night ([1]; WT mice): significantly increased
- effect on HR during the night ([1]; WT mice, DOCP treatment): significant decrease
- Mean arterial pressures ([1]; WT mice, Daytime (Inactive)): 112.9 ± 2.3 mmHg
- Heart rate ([1]; WT mice, Daytime): 496.7 ± 17.5 beats/min
- Locomotor activity ([1]; WT mice, Daytime): 3.913 ± 0.407
- Mean arterial pressures ([1]; WT mice, Nighttime (Active)): 122.5 ± 2.9 mmHg
- Heart rate ([1]; WT mice, Nighttime): 533.5 ± 17.2 beats/min
- Locomotor activity ([1]; WT mice, Nighttime): 7.036 ± 0.735
- increase in H+,K+-ATPase-mediated JH (H^+,K^+-ATPase; A-type intercalated cells, DOCP-treated versus control mice): approximately 60%
- rate of H+,K+-ATPase-mediated JH (H^+,K^+-ATPase; B type ICs, DOCP-treated versus control mice): not affected
- increase in H+,K+-ATPase-mediated JH (H^+,K^+-ATPase; intercalated cells from DOCP-treated mice (eight days) versus control): greater than 60%
